From US12534469B2 (CHILDREN'S HOSPITAL MEDICAL CENTER, priority 2020, dated 2026)

What was measured:
FLT3 = molecular target: T1, FLT3 (Homo sapiens, UniProt P36888); assay: RBC HotSpot Kinase Assay, FLT3; assay type: biochemical
T1 construct: purchased Reaction Biology (RBC HotSpot Kinase Assay)
T1 sequence (P36888 564-958 limits assumed): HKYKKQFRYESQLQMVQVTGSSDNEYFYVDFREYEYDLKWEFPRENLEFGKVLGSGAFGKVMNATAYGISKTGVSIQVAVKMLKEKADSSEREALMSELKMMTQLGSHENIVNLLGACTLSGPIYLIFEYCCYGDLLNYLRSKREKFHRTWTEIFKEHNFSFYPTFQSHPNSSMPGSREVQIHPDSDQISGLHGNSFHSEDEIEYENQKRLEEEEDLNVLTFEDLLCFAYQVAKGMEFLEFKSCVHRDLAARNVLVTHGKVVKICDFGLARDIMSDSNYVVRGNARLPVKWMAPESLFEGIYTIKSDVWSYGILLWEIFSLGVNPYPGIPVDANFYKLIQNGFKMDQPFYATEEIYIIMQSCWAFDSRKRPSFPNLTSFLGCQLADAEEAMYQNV
Procedure, shortened: (§1)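 Radiometric filter-binding (HotSpot) activity assay on isolated recombinant kinase, possibly truncated or catalytic domain only, in 20 mM Hepes pH 7.5, 10 mM MgCl2, 1 mM EGTA, 2 mM DTT, 1% DMSO. Compound preincubated 20 min with kinase and substrate, then ^33P-ATP added. Reaction 2 h at room temperature, read by P81 filter binding.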

IRAK4 = molecular target: T2, IRAK4 (Homo sapiens, UniProt Q9NWZ3); assay: RBC HotSpot Kinase Assay, IRAK4; assay type: biochemical; design: purchased Reaction Biology (RBC HotSpot Kinase Assay)
T2 sequence (Q9NWZ3 1-460): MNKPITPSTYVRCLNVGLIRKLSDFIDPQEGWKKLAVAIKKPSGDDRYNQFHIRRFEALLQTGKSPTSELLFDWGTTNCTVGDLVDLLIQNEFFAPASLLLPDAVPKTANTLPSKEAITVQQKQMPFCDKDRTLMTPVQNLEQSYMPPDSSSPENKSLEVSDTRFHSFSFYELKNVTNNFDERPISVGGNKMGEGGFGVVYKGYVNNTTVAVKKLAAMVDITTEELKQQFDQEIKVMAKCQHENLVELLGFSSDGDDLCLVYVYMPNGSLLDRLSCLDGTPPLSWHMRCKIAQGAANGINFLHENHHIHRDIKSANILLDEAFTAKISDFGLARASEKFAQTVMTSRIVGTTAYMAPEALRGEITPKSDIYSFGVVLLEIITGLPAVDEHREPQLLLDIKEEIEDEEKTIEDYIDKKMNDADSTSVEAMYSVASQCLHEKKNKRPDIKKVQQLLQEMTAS
Procedure, shortened: as §1

IRAK1 = molecular target: T3, IRAK1 (Homo sapiens, UniProt P51617); assay: RBC HotSpot Kinase Assay, IRAK1; assay type: biochemical
T3 construct: purchased Reaction Biology (RBC HotSpot Kinase Assay)
T3 sequence (P51617 whole entry): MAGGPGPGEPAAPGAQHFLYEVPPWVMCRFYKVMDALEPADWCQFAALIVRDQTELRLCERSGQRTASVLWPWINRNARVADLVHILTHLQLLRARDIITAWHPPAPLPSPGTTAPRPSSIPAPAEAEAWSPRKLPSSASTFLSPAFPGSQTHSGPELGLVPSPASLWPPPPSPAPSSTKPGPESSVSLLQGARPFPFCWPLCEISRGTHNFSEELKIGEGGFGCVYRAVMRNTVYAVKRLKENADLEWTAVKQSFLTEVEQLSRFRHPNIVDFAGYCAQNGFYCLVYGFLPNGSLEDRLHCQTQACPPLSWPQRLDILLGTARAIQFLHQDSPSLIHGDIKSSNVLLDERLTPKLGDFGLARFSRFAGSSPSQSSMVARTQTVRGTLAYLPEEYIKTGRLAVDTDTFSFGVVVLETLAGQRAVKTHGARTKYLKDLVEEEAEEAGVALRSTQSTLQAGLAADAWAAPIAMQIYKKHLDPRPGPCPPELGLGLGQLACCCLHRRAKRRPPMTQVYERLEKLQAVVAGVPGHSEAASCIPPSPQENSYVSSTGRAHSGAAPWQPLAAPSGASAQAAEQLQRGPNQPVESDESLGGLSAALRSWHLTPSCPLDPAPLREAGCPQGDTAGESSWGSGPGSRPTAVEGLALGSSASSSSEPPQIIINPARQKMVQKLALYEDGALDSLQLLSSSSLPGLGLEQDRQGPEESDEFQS
Procedure, shortened: as §1

MOLM14 F691L cells = assay: MOLM14 F691L cell viability assay (Cell Titer Glo); assay type: cell-based
Experimental: (§2) Both cell lines have activated FLT3 receptors, each of which carry additional resistance mutations in the kinase domain (D835Y and F691L, respectively).
(§3) MOLM14 D835Y and MOLM14 F691L cells were grown in RPMI-1640 media supplemented with 20% fetal bovine serum (FBS). For viability/cytotoxicity assessments, cells were seeded into 1536-well white polystyrene tissue culture-treated Greiner plates using a Multidrop Combi dispenser (ThermoFisher), in final volume 5 μL of growth media per well, at a density of 1000 cells per well. After cell addition, 23 nL of test compound were transferred into individual wells (22 doses tested for each test compound, with a 1:2 dilution series starting at 10 μM) via a 1536 pin-tool. Bortezomib (final concentration 2.3 μM) was used as a positive control for cell cytotoxicity. Plates were incubated for 48 hours at standard incubator conditions covered by a stainless steel gasketed lid to prevent evaporation. 48 hours post compound addition, 3 μL of Cell Titer Glo (Promega) were added to each well and plates were incubated at room temperature for 15 minutes with the stainless-steel lid in place. Luminescence readings were taken using a Viewlux imager (PerkinElmer) with a 2 second exposure time per plate.

MOLM14 D835Y cells = assay: MOLM14 D835Y cell viability assay (Cell Titer Glo); assay type: cell-based
Experimental: as §2, §3

Row | SMILES | IC50 (FLT3) [nM] | IC50 (IRAK4) [nM] | IC50 (IRAK1) [nM] | IC50 (MOLM14 F691L cells; Homo sapiens, MOLM-14, 48 h) [nM] | IC50 (MOLM14 D835Y cells; Homo sapiens, MOLM-14, 48 h) [nM] | IC50 (MOLM14 D835Y cells; 48 hours) [nM] | IC50 (MOLM14 F691L cells; 48 hours) [nM]
1 | COc1cc2ncc(-c3cccc(N[C@@H]4CCCNC4)n3)n2nc1C1CC1 [Compound 101] | < 0.5 | 11 | 2320 | 596 | – | – | –
2 | COc1cc2ncc(-c3cccc(N[C@@H]4CCCNC4)n3)n2nc1C(F)F [Compound 117, (R)-6-(6-(difluoromethyl)-7-methoxyimidazo[1,2-b]pyridazin-3-yl)-N-(piperidin-3-yl)pyridin-2-amine] | < 0.5 | 4 | 383 | 1370 | 109 | – | –
3 | COc1cc2ncc(-c3cccc(N[C@H]4CNCC[C@@H]4F)n3)n2nc1C(C)(O)C(F)(F)F (single isomer, unassigned; fast-eluting) [Compound 134] | < 0.5 | 183 | 8640 | – | – | 244 | 1720
4 | COc1cc2ncc(-c3cccc(N[C@H]4CNCC[C@@H]4F)n3)n2nc1-c1cnn(C(F)F)c1 [Compound 129, 6-(6-(1-(difluoromethyl)-1H-pyrazol-4-yl)-7-methoxyimidazo[1,2-b]pyridazin-3-yl)-N-((3S,4S)-4-fluoropiperidin-3-yl)pyridin-2-amine] | < 0.5 | – | 1140 | 2170 | 154 | – | –
5 | COc1cc2ncc(-c3cc(F)cc(N[C@H]4CNC[C@@H]4F)n3)n2nc1C1CC1 [Compound 103, 6-(6-cyclopropyl-7-methoxyimidazo[1,2-b]pyridazin-3-yl)-4-fluoro-N-((3S,4S)-4-fluoropyrrolidin-3-yl)pyridin-2-amine] | < 0.5 | 16 | 218 | 1450 | 205 | – | –
6 | COc1cc2ncc(-c3cccc(N[C@H]4CNCC[C@@H]4F)n3)n2nc1-c1cn[nH]c1 [Compound 120, N-((3S,4S)-4-fluoropiperidin-3-yl)-6-(7-methoxy-6-(1H-pyrazol-4-yl)imidazo[1,2-b]pyridazin-3-yl)pyridin-2-amine] | < 0.5 | < 0.5 | 85 | 275 | 20 | – | –
7 | COc1cc2ncc(-c3cccc(N[C@H]4CNCC[C@@H]4F)n3)n2nc1C(C)(O)C(F)(F)F (single isomer, unassigned; slow-eluting) [Compound 136] | < 0.5 | 10 | 3140 | – | – | 31 | 344
8 | COc1cc2ncc(-c3cc(F)cc(N[C@@H]4CCCNC4)n3)n2nc1C1CC1 [Compound 104, (R)-6-(6-cyclopropyl-7-methoxyimidazo[1,2-b]pyridazin-3-yl)-4-fluoro-N-(piperidin-3-yl)pyridin-2-amine] | < 0.5 | 45 | 1340 | 1150 | 193 | – | –
9 | COc1cc2ncc(-c3cccc(N[C@H]4CNC[C@@H]4F)n3)n2nc1-c1cnn(C)c1 [Compound 121, N-((3S,4S)-4-fluoropyrrolidin-3-yl)-6-(7-methoxy-6-(1-methyl-1H-pyrazol-4-yl)imidazo[1,2-b]pyridazin-3-yl)pyridin-2-amine] | 1 | 11 | 778 | 1370 | 97 | – | –
10 | F[C@H]1CNC[C@@H]1Nc1cccc(-c2cnc3cc(Cl)cnn23)n1 [Compound 110, 6-(7-chloroimidazo[1,2-b]pyridazin-3-yl)-N-((3S,4S)-4-fluoropyrrolidin-3-yl)pyridin-2-amine] | 6 | 190 | 3710 | – | 591 | – | –
11 | COc1cc2ncc(-c3cccc(N[C@H]4CNC[C@@H]4F)n3)n2nc1C(C)(O)C(F)(F)F (single isomer, unassigned; slow-eluting) [Compound 135] | < 0.5 | 169 | > 10000 | – | – | 386 | 4330
12 | COc1cc2ncc(-c3cccc(N[C@H]4CNCC[C@@H]4F)n3)n2nc1-c1cnn(C)c1 [Compound 122, N-((3S,4S)-4-fluoropiperidin-3-yl)-6-(7-methoxy-6-(1-methyl-1H-pyrazol-4-yl)imidazo[1,2-b]pyridazin-3-yl)pyridin-2-amine] | 0.7 | 37 | 537 | 686 | 49 | – | –
13 | COc1cc2ncc(-c3cc(F)cc(N[C@H]4CNCC[C@@H]4F)n3)n2nc1C1CC1 [Compound 105, 6-(6-cyclopropyl-7-methoxyimidazo[1,2-b]pyridazin-3-yl)-4-fluoro-N-((3S,4S)-4-fluoropiperidin-3-yl)pyridin-2-amine] | < 0.5 | 7 | 272 | 1220 | 231 | – | –
14 | COc1cc2ncc(-c3cccc(N[C@@H]4CCCNC4)n3)n2nc1C(C)(O)C(F)(F)F (single isomer, unassigned) [Compound 131] | < 0.5 | 424 | 8200 | – | – | 69 | 545
15 | COc1cc2ncc(-c3cccc(N[C@@H]4CCNC4)n3)n2nc1C1(C(F)(F)F)CC1 [Compound 81, (R)-6-(7-methoxy-6-(1-(trifluoromethyl)cyclopropyl)imidazo[1,2-b]pyridazin-3-yl)-N-(pyrrolidin-3-yl)pyridin-2-amine] | 2 | 25 | 954 | – | 591 | – | –
16 | Cn1cc(-c2ccc3ncc(-c4cccc(N[C@H]5CNC[C@@H]5F)n4)n3n2)cn1 [Compound 1, N-((3S,4S)-4-fluoropyrrolidin-3-yl)-6-(6-(1-methyl-1H-pyrazol-4-yl)imidazo[1,2-b]pyridazin-3-yl)pyridin-2-amine] | 0.6 | 13 | 331 | 1680 | 60 | – | –
17 | COc1cc2ncc(-c3cccc(N[C@@H]4CCCNC4)n3)n2nc1C(C)(O)C(F)(F)F (single isomer, unassigned) [Compound 132] | 5 | 1770 | > 10000 | – | – | 486 | 3440
18 | F[C@H]1CNC[C@@H]1Nc1cccc(-c2cnc3cc(C4CC4)cnn23)n1 [Compound 111, 6-(7-cyclopropylimidazo[1,2-b]pyridazin-3-yl)-N-((3S,4S)-4-fluoropyrrolidin-3-yl)pyridin-2-amine] | 4 | 131 | 774 | – | 1010 | – | –
19 | COc1cc2ncc(-c3cccc(N[C@H]4CNCC[C@@H]4F)n3)n2nc1-c1cnn(C(F)F)c1 [Compound 130, 6-(6-(1-(difluoromethyl)-1H-pyrazol-4-yl)-7-methoxyimidazo[1,2-b]pyridazin-3-yl)-N-((3S,4S)-4-fluoropiperidin-3-yl)pyridin-2-amine] | < 0.5 | – | 734 | – | – | 137 | 1370
